Where two headings read alike, the source gives them in different places.
Tests used:
[1] = test system: HCV luciferase replicon; experiment: IC50 assay: inhibition of the HCV luciferase replicon in Huh7 cells; assay type: cell-based
Method: After 48 h of treatment at 37° C., the media in each well was removed, the cells were gently washed once with phosphate buffered saline (PBS) and subsequently lysed by the addition of Glo Lysis Buffer (Promega). After a 15 min incubation at room temperature to allow for complete cell lysis, Bright-Glo luciferase reagent (Promega) was added to each well and the relative luciferase activity in each well was determined by using a Glowmax 96 microplate luminometer (Promega).
IC50 values determined using the above methods for inhibition of the HCV luciferase replicon in Huh7 cells are set forth in Table 1.
All compounds were purified by HPLC.

[2] = test system: Huh7; experiment: TC50 assay with human cancer cell lines, 96 h: Huh7; assay type: cell-based; details: Huh-7, 96 h, read-out: TC50 Huh7 (μM)
Method: (§2) Huh7 cells were maintained at 37° C. in a humidified atmosphere at 5% CO2 in DMEM containing 10% FBS. […] The cells were then treated with each compound at concentrations ranging from 500 μM to 0 μM in triplicate in DMEM media containing 2% FBS and 0.5% DMSO and without phenol red. After 48 h of treatment at 37° C., the relative number of living cells in each well was determined by using the CellTiter 96 system (Promega) according to the manufacturer's instructions. The 3-(4,5-dimethylthiazol-2-yl)-5-(3-carboxymethoxyphenyl)-2-(4-sulfophenyl)-2H-tetrazolium (MTS) and phenazine methosulfate (PMS) reagents were added to each well of the 96-well plate and the plate was incubated at 37° C. for approximately 2 h. The absorbance at 490 nm and 650 nm in each well was then determined by using a Flexstation 3 microplate reader (Molecular Dynamics). The absorbance determined at 650 nm was then subtracted from the absorbance determined at 490 nm to correct for light scattering. The corrected absorbance values representing the relative number of live cells in each condition were then plotted as a function of compound concentration, and the data were then fit to the following sigmoidal Emax equation by using Kaleidagraph: y=(Emax*x^Slope)/(TC50^Slope+x^Slope) where y is the relative corrected absorbance value, Emax is the maximum relative inhibition, x is the compound concentration, TC50 is the concentration of the compound at which the total cell population is reduced by 50%, and Slope is the slope of the curve.
(§3) Huh7, HEPG2, HEK293, MCF-7 and BxPC3 cell lines were maintained at 37° C. in a humidified atmosphere at 5% CO2 in DMEM containing 10% FBS. […] The cells were then treated with each compound at concentrations ranging from 500 μM to 0 μM in triplicate in DMEM media containing 2% FBS and 0.5% DMSO and without phenol red.

[3] = test system: HEPG2; experiment: TC50 assay with human cancer cell lines, 96 h: HEPG2; assay type: cell-based; details: HepG2, 96 h, read-out: TC50 HEPG2 (μM)
Method: as §2, §3

[4] = test system: BxPC3; experiment: TC50 assay with human cancer cell lines, 96 h: BxPC3; assay type: cell-based; details: BXPC-3, 96 h, read-out: TC50 BxPC3 (μM)
Method: as §2, §3

[5] = test system: RPK9 cells; experiment: TC50 assay in gemcitabine resistant (dCK deficient) RPK9 cells, 48 h; details: read-out: TC50 (μM) in RPK9 cells at 48 hr
Method: (§1) Huh7 cells were maintained at 37° C. in a humidified atmosphere at 5% CO2 in DMEM containing 10% FBS. […] The cells were then treated with each compound at concentrations ranging from 500 μM to 0 μM in triplicate in DMEM media containing 2% FBS and 0.5% DMSO and without phenol red. After 48 h of treatment at 37° C., the relative number of living cells in each well was determined by using the CellTiter 96 system (Promega) according to the manufacturer's instructions. The 3-(4,5-dimethylthiazol-2-yl)-5-(3-carboxymethoxyphenyl)-2-(4-sulfophenyl)-2H-tetrazolium (MTS) and phenazine methosulfate (PMS) reagents were added to each well of the 96-well plate and the plate was incubated at 37° C. for approximately 2 h. The absorbance at 490 nm and 650 nm in each well was then determined by using a Flexstation 3 microplate reader ([…]). The absorbance determined at 650 nm was then subtracted from the absorbance determined at 490 nm to correct for light scattering. The corrected absorbance values representing the relative number of live cells in each condition were then plotted as a function of compound concentration, and the data were then fit to the following sigmoidal Emax equation by using Kaleidagraph: y=(Emax*x^Slope)/(TC50^Slope+x^Slope) where y is the relative corrected absorbance value, Emax is the maximum relative inhibition, x is the compound concentration, TC50 is the concentration of the compound at which the total cell population is reduced by 50%, and Slope is the slope of the curve.
PK9 and RPK9 cells were maintained at 37° C. in a humidified atmosphere at 5% CO2 in Roswell Park Memorial Institute (RPMI) media containing 10% FBS. […] The cells were then treated with each compound at concentrations ranging from […] to 0 μM in triplicate in RPMI media containing 2% FBS and 0.5% DMSO and without phenol red. […] The RPK9 cells were derived from the parental PK9 cell line, and are deficient for dCK activity due to the partial deletion of the dCK gene.

[6] = test system: PK9 cells; experiment: Cell transport: cytotoxicity in PK9 cells with or without ENT1 inhibitor NBTI; details: Homo sapiens, PK9, 48 h
Method: as §1
To this end, Huh7 cells or PK9 cells were seeded in 96-well plates at a density of 5,000 cells/well or 2,500 cells/well, respectively, and the plates were incubated at 37° C. for 24 h to allow for cell attachment. The media was then removed from the plates and replaced with media containing 2% FBS, 0.5% DMSO and 10 μM NBTI. […] Subsequently, the cells were treated with each compound at final concentrations ranging from 500 μM to 0 μM in triplicate in media containing 2% FBS, 0.5% DMSO and 10 μM NBTI. […] The TC50 values of each compound in the presence or absence of the ENT1 inhibitor were then compared.

[7] = test system: HCV luciferase replicon; experiment: Isobologram analysis of synergism with antiviral compound in HCV luciferase replicon; assay type: cell-based
Method: Isobologram analysis was conducted to assess the potential synergistic interaction of representative disclosed compounds with representative antiviral compounds. The isobolgram analysis was conducted as previously described by Chou and Talalay (see Chou T. C. and Talalay P. “Analysis of combined drug effects: a new look at a very old problem.” Trends Pharmacol Sci 1983; 4:450-4; and Chou T. C. and Talalay P. “Quantitative analysis of dose-effect relationships: the combined effects of multiple drugs or enzyme inhibitors.” Adv Enzyme Regul 1984; 22:27-55; both of which are incorporated herein by reference in their entirety). The definitions of synergism are those described by Chou (see Chou, T. C. (2006) Theoretical basis, experimental design, and computerized simulation of synergism and antagonism in drug combination studies. Pharmacol Rev. 58(3):621-81, which is incorporated herein by reference in its entirety).
In the synergism studies described herein, the antiviral compound shown in Table 6 was assessed in combination with a representative disclosed compound, Compound 1.

[8] = Tolerability of single oral dosage in HCV-infected chimpanzees; assay type: in vivo, chimpanzee; details: single oral dosage 200 mg
Method: Via oral gavage, two HCV-infected chimpanzees I (male, 56.49 kg and 11 years old; genotype 1b HCV) and II (male, 61.91 kg and 34 years old; genotype 1a HCV) each received a single dosage of 200 mg of Compound 1 in Formulation I while the HCV-infected chimpanzee III (male, 56.19 kg and 18 years old; genotype 1a HCV) was administered a single dosage of 260 mg of the non-phosphorylated analog of Compound 1 (Table 1) in Formulation I. After 12 hours, the HCV viral titer decreased from 24,100 to 10,200 IU/ml (or 58% drop) in Chimpanzee I, from 38,500 to 27,000 IU/ml (or 30% drop) in Chimpanzee II, and from 154,000 to 142,000 IU/ml (or 8% drop) in Chimpanzee III. […] All animals were fasted overnight prior to dosing and a minimum of 2 hours prior to scheduled blood sample collections. Viral load determinations were performed on plasma samples using the HCV TaqMan assay (COBAS® AmpliPrep/COBAS® TaqMan® HCV Test, Version 2, Test Code 1220) for quantitative analysis. […] There were no adverse effects, illness, nor distress seen with the three chimpanzees during the study requiring veterinarian intervention.

[9] = Compound 1 0.2 nM + BMS-790052 0.010 nM
[10] = Compound 1 0.4 nM + BMS-790052 0.008 nM
[11] = Compound 1 7.1 nM + BMS-790052 0.006 nM
[12] = Compound 1 14.2 nM + BMS-790052 0.004 nM

CCCC(CCC)C(=O)Nc1ccn([C@@H]2O[C@H](CO[P@@](=O)(N[C@@H](C)C(=O)OC(C)C)Oc3ccccc3)[C@@H](O)C2(F)F)c(=O)n1 [Compound 1, (S)-isopropyl 2-(((S)-(((2R,3R,5R)-4,4-difluoro-3-hydroxy-5-(2-oxo-4-(2-propylpentanamido)pyrimidin-1(2H)-yl)tetrahydrofuran-2-yl)methoxy)(phenoxy)phosphoryl)amino)propanoate]
IC50 ([1]; Hepatitis C virus, Huh-7, 48 h): 0.0884 ± 0.0133 µM
Therapeutic Index (TC50/IC50) ([1]; TC50 in Huh7 / IC50 HCV replicon, 48 h): 198
CC50 [2]: 3.28 ± 0.57 µM
CC50 [3]: 1.31 ± 0.21 µM
CC50 [4]: 7.01 ± 0.97 µM
CC50 [5]: 24.2 ± 6.4 µM
CC50 ([6]; read-out: TC50 (μM) in PK9 cells at 48 h With NBTI): 16.9 µM
CC50 ([6]; read-out: TC50 (μM) in PK9 cells at 48 h Without NBTI): 25.2 µM
Combination Index [7, 9]: 0.505
level of synergism [7, 9]: synergism
Combination Index [7, 10]: 0.410
level of synergism [7, 10]: synergisn
Combination Index [7, 11]: 0.468
level of synergism [7, 11]: synergism
Combination Index [7, 12]: 0.535
level of synergism [7, 12]: synergism
Combination Index ([7]; Compound 1 42.3 nM, BMS-790052 0 nM): 1.000
interaction of Compound 1 with BMS-790052 in the inhibition of the HCV luciferase replicon ([7]; co-treatment with NS5A inhibitor BMS-790052): synergism
concentration of the single agent on the IC50 isobologram (Combination Index 1.000) ([7]; compound alone, other compound 0 nM): 42.3 nM
tolerability [8]: well tolerated

From US10059733B2 (NUCORION PHARMACEUTICALS, INC., priority 2014, dated 2018)
